Read-outs that look alike come from different tables or passages of the source.
What was measured:
[1] = system: human Liver-Chip (hepatocyte layer); assay: Liver-Chip immunofluorescence imaging (caspase 3/7, TMRM, AdipoRed/LipidTOX); type: cell-based; conditions: for Immunofluorescent findings, donor one (Supplementary Figure 3) / Immunofluorescent findings, donor three (Supplementary Figure 3) / Immunofluorescent findings, donor two (Supplementary Figure 3): day 7 post-drug administration, hepatocyte layer, top channel; for Immunofluorescence staining result in words: caspase 3/7 (apoptosis) or TMRM (mitotoxicity), 7 days
Description: Chips were detached from pods and washed once with PBS. […] Afterwards, chips were washed with PBS and stored at 4 °C until staining. Following fixation, chips corresponding to low, medium, and high concentrations from each group were cut in half with a razor blade perpendicular to the co-culture channels. One half was used in the following staining protocol, while the other half was stored for future staining. All stains and washes utilized the bubble method, in which a small amount of air is flowed through the channel prior to bulk wash media to prevent a liquid-liquid dilution of the staining solution. […] Following 15 minutes of incubation at room temperature, each channel was washed with 200 µL of PBS (alternating channels, 2× for top and 3× for bottom). As an alternative lipid accumulation marker, 100 µL of HCS LipidTOX Deep Red (ThermoFisher, H34477) was diluted 1:1000 v/v in PBS with NucBlue counterstain and added to the top channel. After a 30 min incubation at room temperature, the chips were again allowed to reach room temperature before the channels were alternatively washed with 200 µL of PBS, the bottom channel undergoing three washes and the top channel undergoing two. Chips were then imaged using the Opera Phenix. Following lipid and DAPI staining and imaging, chips were stained with a […] (MRP2) antibody to visualize the bile canalicular structures characteristic of healthy Liver-Chips. […] Then, each channel was washed with 200 µL of PBS (alternating channels, 2× for top and 3× for bottom). […] Next, primary antibody Mouse anti-MRP2 (Abcam, ab3373) was prepared 1:100 in the original blocking buffer, diluted 1:4 in PBS. 100 µL of solution was added to each channel, and chips were stored overnight at 4 °C. The following day, each channel was washed with 200 µL of PBS (alternating channels, 2× for top and 3× for bottom). […] 100 µL of solution was added to each channel and chips incubated at room temperature, protected from light, for two hours. Then, each channel was washed with 200 µL of PBS (alternating channels, 2× for top and 3× for bottom). Chips were imaged immediately or stored at 4 °C until ready for imaging on the Opera Phenix. Chip replicates designated for live cell imaging were washed with PBS utilizing the bubble method. Chips were then cut in half perpendicular to the co-culture channels. […] The bottom chips halves were stained with NucBlue (Thermo) to visualize nuclei and Tetramethylrhodamine, methyl ester (TMRM) (ThermoFisher, I34361) to visualize active mitochondria. This staining panel was prepared in PBS with 5% FBS, with NucBlue at 2 drops per mL and TMRM at a 1:1000 ratio in original blocking buffer, diluted 1:4 in PBS. Chips were incubated in the dark at 37 °C for 30 min, and then each channel was washed with 200 µL of PBS (alternating channels, 2× for top and 3× for bottom). The chips were kept at 37 °C, protected from light, until ready for imaging with the Opera Phenix. Fluorescent confocal image acquisition was performed using the Opera Phenix High-Content Screening System and Harmony 4.9 Imaging and Analysis Software (PerkinElmer). Before acquisition, the Phenix internal environment was set to 37 °C and 5% CO2. […] Whole chips were placed directly into each slot, while top and bottom half chips were matched and combined in one chip slot. Chips were aligned flush with the adapter and one another. Any bubbles identified from visual inspection were washed out with PBS. Once ready, the stained chips were covered with transparent plate film to seal channel ports and loaded into the Phenix. […] Z-stacks were generated with 3.6 µm between slices for 28–32 planes so that the epithelium was located around the center of the stack. […] Raw images from fixed and live imaging were exported in TIFF format from the Harmony software. Using scripts written for FIJI (ImageJ), TIFFs across three color channels and multiple z-stacks were compiled into composite images for each field of view in each chip. […]

[2] = system: clinical drug-induced liver injury; conditions: clinical DILI severity category 1 to 5; cited from earlier work
[3] = system: human Liver-Chip (hepatocytes and non-parenchymal cells)
Description: At least four to six brightfield images were acquired per chip for morphology analysis. […] Brightfield images were acquired across three fields of view on days 1, 3, and 7 for each cycle. Cytotoxicity classification was performed while acquiring images for both NPCs and hepatocytes. Images were then scored zero to four by blinded individuals (n = 2) based on severity of agglomeration of cell debris for both channels. The scoring matrix and representative images have been included in the supplement (Supplementary Fig. 1).
Hepatocyte layer on Chips
Non-parenchymal cell layer on Chips
Supplementary Figure 1. (a) Representative brightfield images to depict the cellular morphology score in the top channel of the Liver-Chip which contains hepatocytes. A score of 0 represents no hepatotoxicity detected, which is defined by 95-100% healthy hepatocyte morphology, hexagonal shape containing binucleated cells, clear cell cytoplasm, distinctive cell junctions and less than 5% dead cells. A score of 1 […]
cells. A score of 2 represents mild hepatotoxicity with > 70% monolayer of hepatocytes visible, evidence that cells have begun to lose their distinct cell junctions, many cells contain a granulated cytoplasm but < 30% are dead cells. A score of 3 represents moderate hepatotoxicity with severe granulation of cytoplasm and most of the cells have lost their junctions. Approximately 50% of the cells are considered dead. A score of 4 represents severe hepatotoxicity with agglomeration of cell debris and > 50% of the cells are considered dead. The pores on the membrane become visible as there is no longer a cellular monolayer. (b) Representative brightfield images to depict the cellular morphology score in the bottom channel of the Liver-Chip which contains non-parenchymal cells. A score of 0 represents no cytotoxicity detected, with an intact monolayer and <1% of the cells are dead. A score of 1 represents at least 90% of the monolayer is present and there are <10% dead cells. A score of 2 represents mild cytotoxicity with > 80% of the monolayer present and < 20% are dead cells. A score of 3 represents moderate cytotoxicity with > 50% of the monolayer present and < 50% are dead cells. A score of 4 represents severe cytotoxicity with > 50% of the cells are considered dead. (bar, 50 μm). […]

human Liver-Chip = assay: Liver-Chip DILI prediction: minimum toxic concentration and margin of safety (MOS)-like figure; conditions: for Chip MOS both donors / Chip MOS donor 1 / Chip MOS donor 2: free IC50 concentration in the assay divided by total concentration of drug in human plasma at Cmax; for Liver-Chip toxicity determination, MOS-like figure against threshold value of 50: not corrected for protein binding, donors one and two;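 on Chip MOS both donors: Toxic concentration is the lowest across albumin IC50 and ALT and morphology endpoints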;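 on Chip MOS donor 1: Toxic concentration is the lowest across albumin IC50 and ALT and morphology endpoints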;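 on Chip MOS donor 2: Toxic concentration is the lowest across albumin IC50 and ALT and morphology endpoints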
Excerpt: Because the fundamental principles of drug action dictate that free (unbound) drug concentrations drive drug effects, we explored an alternative methodology for calculating the MOS-like values by accounting for protein binding using a previously reported approach. Accordingly, we reanalyzed the findings for the 27 drugs in our study by accounting for protein binding.

[4] = human plasma; no reference printed (-); cited from earlier work
[5] = lowest concentration causing an increase in cellular morphology score, donor 1
[6] = lowest concentration causing an increase in cellular morphology score, donor 2
[7] = lowest concentration causing an increase in cellular morphology score, donor 3

SMILES	Immunofluorescent findings, donor one (Supplementary Figure 3) [1]	Immunofluorescent findings, donor three (Supplementary Figure 3) [1]	IF imaging Donor 1 ([1]; matched pair analysis)	IF imaging Donor 2 ([1]; matched pair analysis)	IF imaging Donor 3 ([1]; matched pair analysis)	Garside DILI rank [2]	Morphology Donor 1 [3, 5]	Chip MOS both donors (human Liver-Chip)	Chip MOS donor 1 (human Liver-Chip)	Chip MOS donor 2 (human Liver-Chip)	Immunofluorescent findings, donor two (Supplementary Figure 3) [1]	Morphology Donor 1 ([3]; human)	Morphology Donor 2 ([3]; human)	Immunofluorescence staining result in words [1]	also measured
COC(c1ccccc1)(c1ccccc1)[C@H](Oc1nc(C)cc(C)n1)C(=O)O [Ambrisentan]	No findings	No findings	No findings	No findings	No findings	5	>300 multiples of the unbound human Cmax	>10	>3	>10					Morphology Donor 2 [3, 6]: >1000 multiples of the unbound human Cmax; Morphology Donor 3 [3, 7]: >300 multiples of the unbound human Cmax
CCN(CC)C(=O)/C(C#N)=C/c1cc(O)c(O)c([N+](=O)[O-])c1 [Entacapone]	No findings		No findings			4	>300 multiples of the unbound human Cmax		>6						
O=c1[nH]c(=O)n([C@@H]2O[C@H](CO)[C@@H](O)[C@@H]2F)cc1I [Fialuridine]	No findings		No findings	Steatosis		1		0.1	0.1	2.8	Steatosis	>300 multiples of the unbound human Cmax	>300 multiples of the unbound human Cmax		
C[C@H]1COc2c(N3CCN(C)CC3)c(F)cc3c(=O)c(C(=O)O)cn1c23 [Levofloxacin]	No findings	No findings	No findings	No findings	No findings			>33.7	>11.3	>33.7		>15 multiples of the unbound human Cmax	>45 multiples of the unbound human Cmax	did not cause cellular apoptosis	Morphology Donor 3 ([3]; human): >45 multiples of the unbound human Cmax; Liver-Chip toxicity determination, MOS-like figure against threshold value of 50 (human Liver-Chip): not detected
CCc1nn(CCCN2CCN(c3cccc(Cl)c3)CC2)c(=O)n1CCOc1ccccc1 [Nefazodone]	No findings		No findings			1			1.4			300 multiples of the unbound human Cmax			
CCc1ccc(CCOc2ccc(CC3SC(=O)NC3=O)cc2)nc1 (stereo not drawn) [Pioglitazone]	Apoptosis		Apoptosis	No findings		3		2.8	2.8	> 2.8	No findings	>300 multiples of the unbound human Cmax	>300 multiples of the unbound human Cmax		
Cc1cc2c(cc1CC(=O)c1sccc1S(=O)(=O)Nc1onc(C)c1Cl)OCO2 [Sitaxsentan]	Mitotoxicity	Mitotoxicity	Mitotoxicity	Mitotoxicity	Mitotoxicity	1	100 multiples of the unbound human Cmax	0.04	0.04	1.6	Mitotoxicity			concentration-dependent decrease in TMRM staining	Morphology Donor 2 [3, 6]: 100 multiples of the unbound human Cmax; Morphology Donor 3 [3, 7]: 100 multiples of the unbound human Cmax
N[C@@H]1[C@H]2CN(c3nc4c(cc3F)c(=O)c(C(=O)O)cn4-c3ccc(F)cc3F)C[C@@H]12 [Trovafloxacin]	Apoptosis	Apoptosis	Apoptosis	Apoptosis	Apoptosis						Apoptosis	100 multiples of the unbound human Cmax	100 multiples of the unbound human Cmax	concentration-dependent increases in caspase 3/7 staining	Morphology Donor 3 ([3]; human): 30 multiples of the unbound human Cmax
CCOC(=O)CN[C@@H](C(=O)N1CC[C@H]1C(=O)NCc1ccc(/C(N)=N\O)cc1)C1CCCCC1 [Ximelagatran]	No findings							30	30	300	No findings	100 unbound human Cmax multiplier	300 unbound human Cmax multiplier		Expected Fraction Unbound in Plasma [4]: 1; IF imaging Donor 1 ([1]; expanded drug list): No findings; IF imaging Donor 2 ([1]; expanded drug list): No findings; Liver-Chip toxicity determination, MOS-like figure against threshold value of 50 (human Liver-Chip): only toxic in one of the donors tested

Source: PMC9727064, “Performance assessment and economic analysis of a human Liver-Chip for predictive toxicology” (Communications Medicine, 2022)
